In patent US11084829B2, “Ubiquitin-specific-processing protease 7 (USP7) modulators and uses thereof” (RAPT THERAPEUTICS, INC., priority 2018, dated 2021):
Like-named read-outs stand apart in the source and are kept apart here.

Experiments:
[1] = tested on: H526; test: Cell viability (CellTiter-Glo), H526; type: cell-based; details: Homo sapiens, NCI-H526
Experimental: (§1) CHP-134 was purchased from Sigma Aldrich, MOLM-13 was purchased from AddexBio, and NB-1 was purchased from Sekisui XenoTech. All other cell lines were purchased from American Type Culture Collection. For all cell lines, identity was confirmed by short tandem repeat profiling and culturing was performed in recommended growth medium. For studies evaluating cellular effects of compound treatment, 250 to 2,000 cells in 40 μl of recommended medium were seeded per well in 384-well plates (Corning 3764). DMSO-solubilized compounds were added in duplicate in a two-fold dilution series using a D300e Digital Dispenser (Hewlett-Packard). Following a 5-day incubation, cell viability was measured using CellTiter-Glo (Promega) following the manufacturer's instructions. Luminescence was measured using a CLARIOstar plate reader (BMG LABTECH) and normalized to that of DMSO-treated cells. IC50 values were determined by non-linear regression using a 4-parameter fit in Prism (GraphPad Software). Inhibitor profiling of the 430-cell line panel was conducted and analyzed similarly.
(§2) In addition to the many p53 wild-type cell lines in the cell line panel that were sensitive to USP7 inhibition, a subset of p53 mutant cell lines that were inhibited by our USP7 inhibitors were identified and are shown in Table 5.
(§3) The effect of pharmacological inhibition of USP7 on the viability of the p53 mutant small cell lung cancer cell line, H526 was further evaluated. […] In contrast, idasanutlin, whose inhibitory effect is dependent on a functional p53 pathway, had no effect.

[2] = tested on: NB-1; test: Cell viability (CellTiter-Glo), NB-1; type: cell-based; details: Homo sapiens, NB1; NB-1, neuroblastoma, MYCN amplified, p53 wild-type
Experimental: as §1
(§4) USP7 has been reported to stabilize MYCN (also referred to as MYCN proto-oncogene, a gene that is a member of the MYC family which is over-expressed in a variety of tumors). Since MYCN amplification is an established driver mutation in neuroblastoma, the effect of USP7 inhibition on a panel of p53 wild-type, MYCN- or MYC-amplified neuroblastoma cell lines was tested. The USP7 inhibitors of Examples 31 and 124 reduced viability of all three MYCN-amplified and two MYC-amplified neuroblastoma cell lines tested as shown in Table 4. Idasanutlin was used as a positive control, and as expected these cell lines were also sensitive to this compound.

[3] = tested on: SK-N-DZ; test: Cell viability (CellTiter-Glo), SK-N-DZ; type: cell-based; details: Homo sapiens, neuroblastoma, MYCN-amplified, p53-mutant
Experimental: as §1, §2

[4] = Tolerability in tumor-free NOD-SCID mice; type: in vivo; details: daily oral 50 mg/kg and 100 mg/kg, preliminary experiments
Experimental: (§5) The effects of USP7 inhibition were assessed in vivo in the MM.1S xenograft model in NOD-SCID mice via daily oral dosing of the USP7 inhibitor 3-((7-(5-chloro-2-(((2S,6S)-2,6-dimethylpiperazin-1-yl)methyl)-3-methylphenyl)thieno[3,2-b]pyridin-2-yl)methyl)-3-azabicyclo[3.1.0]hexane-2,4-dione (the compound of Example 31) at 50 mg/kg and 100 mg/kg. […] However, brief dosing holidays allowed the mice to recover and dosing to continue.

[5] = tested on: MOLP8; test: Cell viability (CellTiter-Glo), MOLP8; type: cell-based; details: Homo sapiens, MOLP-8; MOLP8, MM, p53 wild-type
Experimental: as §1
(§6) USP7 inhibition by the compounds of Examples 31 and 124 reduced the viability of several p53-wild type blood cancer cell lines, including M07e, OCI-AML5 and MOLM13, in vitro as shown in the following Table 3. Idasanutlin was used as a positive control, and as expected these cell lines were also sensitive to this compound.

[6] = tested on: EOL-1; test: Cell viability (CellTiter-Glo), EOL-1; type: cell-based; details: Homo sapiens, EOL1; EOL-1, AML, p53 wild-type
Experimental: as §1, §6

[7] = tested on: NCI-H929; test: Cell viability (CellTiter-Glo), NCI-H929; type: cell-based; details: Homo sapiens; NCI-H929, MM, p53 wild-type
Experimental: as §1, §6

[8] = tested on: CHP-134; test: Cell viability (CellTiter-Glo), CHP-134; type: cell-based; details: Homo sapiens; CHP-134, neuroblastoma, MYCN amplified, p53 wild-type
Experimental: as §1, §4

[9] = target: USP7 (Homo sapiens, UniProt Q93009); test: USP7 inhibitory potency (IC50); type: biochemical
Experimental: Activity for compounds described herein is provided in Table 2, wherein potency levels are provided as follows: (Potency: USP7 IC50: A<0.01 μM; B=0.01-0.1 μM; C=>0.1 μM.

[10] = tested on: MOLM13; test: Cell viability (CellTiter-Glo), MOLM13; type: cell-based; details: Homo sapiens, MOLM-13; MOLM13, AML, p53 wild-type
Experimental: as §1, §6

[11] = tested on: HCC1937; test: Cell viability (CellTiter-Glo), HCC1937; type: cell-based; details: Homo sapiens; HCC1937, breast, triple-negative, BRCA1 mutant, p53-mutant
Experimental: as §1, §2

[12] = tested on: SH-SY5Y; test: Cell viability (CellTiter-Glo), SH-SY5Y; type: cell-based; details: Homo sapiens, neuroblastoma, MYC amplified, p53 wild-type
Experimental: as §1, §4

[13] = tested on: MM.1S; test: Cell viability (CellTiter-Glo), MM.1S; type: cell-based; details: Homo sapiens, MM1.S, p53 wild-type
Experimental: as §1, §6

[14] = tested on: OCI-AML5; test: Cell viability (CellTiter-Glo), OCI-AML5; type: cell-based; details: Homo sapiens, OCI-AML-5, p53 wild-type
Experimental: as §1, §6

[15] = tested on: MM.1S xenograft; test: MM.1S xenograft model in NOD-SCID mice; type: in vivo
Experimental: (§7) MM. 1S and H526 xenograft studies were conducted according to the guidelines approved by the Applicant's Institutional Animal Care and Use Committee (IACUC). MM.1S cells were inoculated in PBS into irradiated NOD/SCID mice, while H526 cells were inoculated in PBS/Matrigel (Corning) into Nu/Nu mice (Jackson Laboratories). Mice were randomized into groups when mean tumor size reached 150 mm^3 (MM.1S) or 50-100 mm^3 (H526), respectively, and drug administration by oral gavage was started on day of randomization. Tumor volumes and body weights were subsequently measured twice per week. Tumor volumes were calculated using the formula: V=0.5(A×B^2), where A and B are the long and short diameters of the tumor, respectively.
as §5

[16] = tested on: LA-N-2; test: Cell viability (CellTiter-Glo), LA-N-2; type: cell-based; details: LA-N-2, neuroblastoma, MYCN-amplified, p53-mutant
Experimental: as §1, §2

[17] = tested on: M07e; test: Cell viability (CellTiter-Glo), M07e; type: cell-based; details: M-07e, AML, p53 wild-type
Experimental: as §1, §6

[18] = tested on: p21; test: Western blot of p21 in H526 cells; type: cell-based; details: after 2, 8 or 24 hours of treatment
Experimental: (§8) For Western blotting, compound-treated cells were lysed in RIPA lysis buffer (ThermoScientific) containing Halt Protease and Phosphatase Inhibitor Cocktail (Life Technologies). Lysates were quantified using the BCA protein assay (Pierce) and equivalent protein was separated by SDS-PAGE (4-12%, ThermoScientific). Following electrophoresis, proteins were transferred to PVDF membranes. […] Caspase activation assays were performed on compound-treated cells using the Caspase-Glo 3/7 Assay Kit (Promega) according to the manufacturer's protocol, and luminescence was measured using a CLARIOstar plate reader (BMG LABTECH). […] Data were collected using FACSCanto (Becton Dickinson) and Attune (Thermo Fisher Scientific) flow cytometers and analyzed with FlowJo software (FlowJo LLC). […] Lysates were quantified using the BCA protein assay (Pierce) and equivalent protein was used in the PathScan Phospho-S6 Ribosomal Protein (Ser235/236) Sandwich ELISA Kit (Cell Signaling) according to the manufacturer's protocol. Absorbance was measured using the Spectramax 300 plate reader (Molecular Devices).
(§9) The effect of pharmacological inhibition of USP7 on the viability of the p53 mutant small cell lung cancer cell line, H526 was further evaluated. […]

[19] = Tolerability in tumor-free mice (preliminary to H526 study); type: in vivo; details: preliminary testing, oral 50 mg/kg twice daily or 100 mg/kg daily
[20] = tested on: MYCN; test: Western blot of MYCN in H526 cells; type: cell-based; details: after 2, 8 or 24 hours of treatment
Experimental: as §8, §9

[21] = tested on: H526 xenograft; test: H526 xenograft model in athymic nude mice; type: in vivo
Experimental: as §7, §3

[22] = H526, lung, small cell, p53-mutant, read-out: CC50
[23] = H526, p53 mutant small cell lung cancer, CellTiter-Glo assay, read-out: CC50 (viability of H526 in vitro)
[24] = H526 xenograft, athymic nude mice, twice-daily oral 50 mg/kg (FIG. 2) or daily oral 100 mg/kg (data not shown)

Chain of USP7 (Q93009 whole entry): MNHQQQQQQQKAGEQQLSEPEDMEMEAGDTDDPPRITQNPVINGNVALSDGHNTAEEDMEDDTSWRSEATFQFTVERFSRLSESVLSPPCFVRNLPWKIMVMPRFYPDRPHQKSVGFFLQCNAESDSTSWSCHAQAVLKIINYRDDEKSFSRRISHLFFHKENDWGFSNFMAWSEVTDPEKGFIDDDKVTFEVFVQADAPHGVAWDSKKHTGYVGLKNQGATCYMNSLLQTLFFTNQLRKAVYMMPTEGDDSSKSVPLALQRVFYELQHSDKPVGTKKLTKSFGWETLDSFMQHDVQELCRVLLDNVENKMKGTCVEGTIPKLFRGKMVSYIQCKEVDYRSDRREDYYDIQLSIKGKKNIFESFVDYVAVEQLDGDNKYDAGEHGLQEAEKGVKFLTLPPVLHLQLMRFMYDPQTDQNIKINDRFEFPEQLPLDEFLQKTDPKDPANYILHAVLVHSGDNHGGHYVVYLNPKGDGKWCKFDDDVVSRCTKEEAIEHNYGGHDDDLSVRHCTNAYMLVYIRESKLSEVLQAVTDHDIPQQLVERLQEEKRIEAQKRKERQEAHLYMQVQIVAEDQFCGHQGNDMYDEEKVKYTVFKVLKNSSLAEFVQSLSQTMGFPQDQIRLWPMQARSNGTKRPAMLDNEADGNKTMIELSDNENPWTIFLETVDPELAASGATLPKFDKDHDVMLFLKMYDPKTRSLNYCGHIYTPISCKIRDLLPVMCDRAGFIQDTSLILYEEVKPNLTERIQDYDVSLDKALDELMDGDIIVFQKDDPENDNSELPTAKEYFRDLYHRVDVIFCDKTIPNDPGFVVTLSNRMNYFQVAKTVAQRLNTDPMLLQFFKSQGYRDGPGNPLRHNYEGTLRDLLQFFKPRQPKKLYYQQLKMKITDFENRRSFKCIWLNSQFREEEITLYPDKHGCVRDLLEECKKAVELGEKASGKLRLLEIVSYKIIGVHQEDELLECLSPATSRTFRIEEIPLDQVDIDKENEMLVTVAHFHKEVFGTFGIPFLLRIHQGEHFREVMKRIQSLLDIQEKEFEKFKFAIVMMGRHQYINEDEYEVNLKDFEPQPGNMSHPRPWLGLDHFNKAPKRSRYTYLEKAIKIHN

Row | SMILES | CC50 [1, 22] [nM] | CC50 [1, 23] [nM] | CC50 [2] [nM] | CC50 [3] [nM] | CC50 [8] [nM] | IC50 [9] [nM] | CC50 [10] [nM] | CC50 [12] [nM] | CC50 [13] [nM] | CC50 [14] [nM] | CC50 [16] [nM] | CC50 [17] [nM] | also measured
1 | Cc1cc(Cl)cc(-c2ccnc3cc(CN4C(=O)C5CC5C4=O)sc23)c1CN1[C@@H](C)CNC[C@@H]1C (stereo partly drawn) [Example 31, 3-((7-(5-chloro-2-(((2S,6S)-2,6-dimethylpiperazin-1-yl)methyl)-3-methylphenyl)thieno[3,2-b]pyridin-2-yl)methyl)-3-azabicyclo[3.1.0]hexane-2,4-dione] | 500 | 500 | 600 | 200 | 500 | < 10 | 100 | 1800 | 100 | 200 | 600 | 100 | tolerability [4]: well tolerated; CC50 [5]: 200 nM; CC50 [6]: 40 nM; CC50 [7]: 400 nM; CC50 [11]: 100 nM; tumor growth ([15]; MM.1S xenograft, NOD-SCID mice, daily oral dosing at 50 mg/kg and 100 mg/kg, FIG. 1A): effectively inhibited MM.1S tumor growth; survival ([15]; MM.1S xenograft, NOD-SCID mice, daily oral dosing at 50 mg/kg and 100 mg/kg, FIG. 1B): prolonged survival in a dose-dependent manner; body weight ([15]; tumor-bearing NOD-SCID mice, longer-term xenograft study, daily oral 50 and 100 mg/kg, recovered with brief dosing holidays): dose-dependent body weight loss in a fraction of mice
2 | Cc1cc(Cl)cc(-c2ccnc3cc(CN4C(=O)C5C(C4=O)C5(C)C)sc23)c1C[C@@H]1CNCCO1 (stereo partly drawn) [Example 124, 3-((7-(5-chloro-3-methyl-2-(((R)-morpholin-2-yl)methyl)phenyl)thieno[3,2-b]pyridin-2-yl)methyl)-6,6-dimethyl-3-azabicyclo[3.1.0]hexane-2,4-dione] | 500 | 500 | 500 | 200 | 600 | < 10 | 400 | 1900 | 100 | 200 | 200 | 200 | p21 level [18]: did not induce any change in p21 level; tolerability [19]: well tolerated; MYCN protein levels [20]: did not reduce MYCN protein levels; survival [21, 24]: prolonged survival; tumor growth [21, 24]: inhibited tumor growth; tolerability ([21]; tumor-bearing mice of the H526 study, oral 50 mg/kg twice daily or 100 mg/kg daily): well tolerated
